Entries after “also recorded” stand apart in the source; their conditions may differ.
B1: interferon γ (protein, UniProt P01579 24-161, looked up)
Interferon gamma: QDPYVKEAENLKKYFNAGHSDVADNGTLFLGILKNWKEESDRKIMQSQIVSFYFKLFKNFKDDQSIQKSVETIKEDMNVKFFNSNKKKRDDFEKLTNYSVTDLNVQRKAIHELIQVMAELSPAAKTGKRKRSQMLFRG
notes: cytokine used with LPS to generate M1 macrophages

What was measured:
[1] = parameters: method as in PMID 18524759; conditions: cited from earlier work
[2] = tested on: HepG2 monocultures and different co-cultures of HepG2 and M1-THP-1 cells; experiment: Concentration-dependent toxicity compared across test systems (MTT viability); format: cell-based; conditions: 24 h exposure; for concentrations producing significant cell death / decrease in viability: Figure 6; for effect on viability in co-cultures compared to monocultures of HepG2 cells: co-culture ratios 1:10, 1:5, 1:2
Experimental: (§1) For the toxicity studies, HepG2 cells alone or in co-culture with different proportions of M1 macrophages were seeded in 96-well plates (15,000 cells/well) and were allowed to grow and equilibrate for 24 h. Then, cells were exposed for 24 h to eight concentrations of the tested compounds (TVX, LVX, TGZ, RGZ). Each experimental condition was assayed in triplicate wells. Test compounds were diluted in DMSO, and then easily diluted in the culture medium to obtain the desired final concentrations (Table 1). The final DMSO concentration in the culture medium never exceeded 0.5% (v/v), and the control cultures were treated with the same amount of solvent.
(§2) Cytotoxicity was assessed by means of the tetrazolium reduction colorimetric assay (MTT test) as previously described in detail.
Data represent triplicate measurements and are expressed as the mean ± SD. Student’s t-test was used for statistical evaluations between two groups, whereas one-way ANOVA followed by Tukey’s multiple comparisons test was used when comparing 3 or more groups. The level of significance was chosen as p < 0.05 and calculated using GraphPad Prism v. 8.4.3.

[3] = tested on: HepG2 cells and co-cultures at different ratios (1:10, 1:5, and 1:2); experiment: Gene expression (RT-qPCR) of oxidative stress, GSH-related and apoptotic genes in treated cultures; format: cell-based, human
Description: Total RNA was extracted using the RNeasy Plus Mini Kit (Qiagen, Madrid, Spain), and was reverse transcribed as described elsewhere. Diluted cDNA was amplified using LightCycler DNA Master SYBR Green I (Roche Applied Science, Barcelona, Spain) and the appropriate primers (Supplementary Table S2) were amplified using a LightCycler 480 Instrument (Roche Applied Science, Barcelona, Spain). For normalization, porphobilinogen deaminase (PBGD), TATA box binding protein (TBP), Large Ribosomal Subunit Protein UL10 (RPLP0), and actin were used. During each amplification, a reference calibrator cDNA, made from a pool of human livers, was included. The relative mRNA expression was calculated using the LightCycler Relative Quantification Analysis software verson 1.5.0.39. Based on PCR efficiencies and the cycle thresholds, the relative concentration of the target and reference cDNAs and their ratio were determined. Additionally, gene expression analysis of test systems alone or treated with the selected toxic compounds was also performed as indicated in Section 2.3.2. For toxicotranscriptomics studies, cells were seeded in P12-well plates at a density of 47,000 cells/cm^2.

[4] = tested on: HepG2 cells; experiment: MTT cytotoxicity in HepG2 monocultures; format: cell-based, human; conditions: for CC50: Homo sapiens, HepG2 monoculture, 24 h exposure, in presence of LPS and IFN-γ, read-out: IC50 values; for effects on the viability: LPS and IFN-γ together, HepG2 cells, Supplementary Figure S1
Experimental: HepG2 cells (ECACC No. 85011430) were cultured in Ham’s F-12/Leibovitz L-15 (1:1 v/v), supplemented with 7% FBS, 50 U of penicillin/mL, and 50 μg of streptomycin/mL.
HepG2 cells were seeded at a density of 47,000 cells/cm^2 as a monoculture control for all the experiments.
as §1, §2

[5] = tested on: co-cultures of HepG2 and M1-THP-1 cells; experiment: MTT cytotoxicity in direct co-cultures of HepG2 and M1-THP-1 macrophages; format: cell-based; conditions: Homo sapiens, HepG2, 24 h, 24 h exposure
Experimental: (§3) THP-1 cells were differentiated to macrophages via incubation with phorbol-12-myrsitate 13-acetate (PMA, 20 or 50 ng/mL) for 72 h. After differentiation, THP-1 cells became adherent with typical macrophage morphology. To generate M1 macrophages, cells were then stimulated with LPS (1 µg/mL) in the presence or absence of interferon γ (IFN-γ) (20 ng/mL) as described in Figure 1.
For subculturing purposes, cells (HepG2 or THP-1) were detached via treatment with 0.25% trypsin/0.02% EDTA at 37 °C. In order to determine the effect of pro-inflammatory macrophages on HepG2 cells, different co-culture conditions were tested. Co-culture proportions were 1:10, 1:5, and 1:2 (M1:HepG2), respectively. Cells were seeded at 47,000 cells/cm^2 per condition and co-culture media consisted of HepG2 and M1-THP-1 cell culture media (1:1). The schedule followed for co-culturing HepG2 cells and M1-THP-1 macrophages is exemplified in Figure 2.
as §1, §2

[6] = tested on: THP-1 cells; experiment: Viability of THP-1 cells after differentiation to pro-inflammatory macrophages; format: cell-based, human; conditions: PMA 50 ng/mL for differentiation followed by LPS and IFN-γ
Experimental: as §3

[7] = 100 µM, compared to non-treated cells

| Molecule | Cmax [1] [µM] | concentrations producing significant cell death / decrease in viability [2] | effect on viability in co-cultures compared to monocultures of HepG2 cells [2] | mRNA levels of Nfr2 pathway, GSH-related enzymes and apoptotic genes ([3]; 25 µM, 24 h, compared to non-treated cultures) | CC50 [4] [µM] | IC50 ([5]; Co-culture 1.10 (M1:HepG2)) [µM] | IC50 ([5]; Co-culture 1.2 (M1:HepG2)) [µM] | IC50 ([5]; Co-culture 1.5 (M1:HepG2)) [µM] | viability after differentiation [6] | mRNA levels of Nfr2 pathway, GSH-related enzymes and apoptotic genes [3, 7] | mRNA levels of Nfr2 pathway, GSH-related enzymes and apoptotic genes ([3]; 25 µM, 24 h, compared to non-treated cultures, listed as TVX) | effects on the viability [4] |
| --- | --- | --- | --- | --- | --- | --- | --- | --- | --- | --- | --- | --- |
| C[C@H]1COc2c(N3CCN(C)CC3)c(F)cc3c(=O)c(C(=O)O)cn1c23 [Levofloxacin] | 15.7 | > 750 µM | no synergic effect was observed | did not significantly change the gene expression | > 800 | > 800 | > 800 | > 800 | – | – | – | – |
| CCCCCCCCCCCCCC(=O)O[C@@H]1[C@@H](C)[C@@]2(O)[C@@H](C=C(CO)C[C@]3(O)C(=O)C(C)=C[C@@H]23)[C@@H]2C(C)(C)[C@]12OC(C)=O [PMA, phorbol-12-myrsitate 13-acetate] | – | – | – | – | – | – | – | – | 79 ± 5 | – | – | – |
| CN(CCOc1ccc(CC2SC(=O)NC2=O)cc1)c1ccccn1 (stereo not drawn) [Rosiglitazone] | – | higher than 200 µM | no significant differences between the test systems were found | – | > 250 | > 250 | > 250 | > 250 | – | produced increases in the expression of GCLM, TXNRD1, and DDIT | – | – |
| Cc1c(C)c2c(c(C)c1O)CCC(C)(COc1ccc(CC3SC(=O)NC3=O)cc1)O2 (stereo not drawn) [Troglitazone] | – | higher than 100 µM | decrease in the viability was more significant in the co-cultures at the highest ratios of M1 cells | – | 223 | 208 | 188 | 203 | – | increased the GCLM, DDIT, and TXNRD1 levels and reduced the GSTA2, GSTA4, GSTT1, and GPX2 levels | – | – |
| N[C@@H]1[C@H]2CN(c3nc4c(cc3F)c(=O)c(C(=O)O)cn4-c3ccc(F)cc3F)C[C@@H]12 [Trovafloxacin] | 4.1 | higher than 50 µM | A synergistic effect was detected in the co-cultures | – | 675 | 531 | 74 | 529 | – | – | reduced the GSTT1, GSTT2, GSTA2, GSTA4, NNQO1, GPX1, GPX2, and GPX4 levels in all the culture conditions; also recorded: Increased levels of AT4 and SOD2 | – |
| lipopolysaccharide [LPS] | – | – | – | – | – | – | – | – | – | – | – | No significant effects on the viability |
| B1 | – | – | – | – | – | – | – | – | – | – | – | No significant effects on the viability |

Source: publication PMC10376129, “Mechanistic Understanding of Idiosyncratic Drug-Induced Hepatotoxicity Using Co-Cultures of Hepatocytes and Macrophages” (Antioxidants, 2023)
